Laboratory results taken from PMC11062922 (Nature Chemical Biology, 2023).

How the values were obtained:
GSK3B = molecular target: T1, GSK3B (Homo sapiens, UniProt P49841); assay: Kinobeads full dose-response competition binding: GSK3B; conditions: Gene Name GSK3B; for Relative Intensity 0.3nM: 0.3nM compound; for Relative Intensity 0.3nM / Relative Intensity 1nM / Relative Intensity 3nM / Relative Intensity 10nM / Relative Intensity 30nM / Relative Intensity 100nM / Relative Intensity 300nM / Relative Intensity 1000nM: DMSO = 1; for Relative Intensity 1nM: 1nM compound; for Relative Intensity 3nM: 3nM compound; for Relative Intensity 10nM: 10nM compound; for Relative Intensity 30nM: 30nM compound; for Relative Intensity 100nM: 100nM compound; for Relative Intensity 300nM: 300nM compound; for Relative Intensity 1000nM: 1000nM compound; for Kd: EC50 with Correction, read-out: apparent Kd; for Kd / EC50: doses in nM; for EC50: eight-dose curve fit
T1 construct: endogenous in cells
T1 sequence (P49841 whole entry): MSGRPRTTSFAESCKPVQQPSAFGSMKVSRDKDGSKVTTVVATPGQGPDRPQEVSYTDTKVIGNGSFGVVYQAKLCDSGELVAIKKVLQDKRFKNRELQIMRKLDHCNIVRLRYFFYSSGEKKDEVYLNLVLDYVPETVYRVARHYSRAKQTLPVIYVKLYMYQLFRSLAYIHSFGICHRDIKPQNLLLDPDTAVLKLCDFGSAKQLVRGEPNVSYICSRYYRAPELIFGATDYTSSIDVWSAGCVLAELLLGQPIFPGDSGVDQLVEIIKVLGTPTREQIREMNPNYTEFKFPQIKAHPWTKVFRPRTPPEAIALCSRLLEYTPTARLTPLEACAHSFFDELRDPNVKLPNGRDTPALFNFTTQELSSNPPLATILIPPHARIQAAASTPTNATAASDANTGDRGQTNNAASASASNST

EPHA4 = molecular target: T2, EPHA4 (Homo sapiens, UniProt P54764); assay: Kinobeads two-dose competition binding: EPHA4; conditions: read-out: Lestaurtinib Drugmatrix value, Gene Name EPHA4
T2 construct: endogenous in cells
T2 sequence (P54764 20-986): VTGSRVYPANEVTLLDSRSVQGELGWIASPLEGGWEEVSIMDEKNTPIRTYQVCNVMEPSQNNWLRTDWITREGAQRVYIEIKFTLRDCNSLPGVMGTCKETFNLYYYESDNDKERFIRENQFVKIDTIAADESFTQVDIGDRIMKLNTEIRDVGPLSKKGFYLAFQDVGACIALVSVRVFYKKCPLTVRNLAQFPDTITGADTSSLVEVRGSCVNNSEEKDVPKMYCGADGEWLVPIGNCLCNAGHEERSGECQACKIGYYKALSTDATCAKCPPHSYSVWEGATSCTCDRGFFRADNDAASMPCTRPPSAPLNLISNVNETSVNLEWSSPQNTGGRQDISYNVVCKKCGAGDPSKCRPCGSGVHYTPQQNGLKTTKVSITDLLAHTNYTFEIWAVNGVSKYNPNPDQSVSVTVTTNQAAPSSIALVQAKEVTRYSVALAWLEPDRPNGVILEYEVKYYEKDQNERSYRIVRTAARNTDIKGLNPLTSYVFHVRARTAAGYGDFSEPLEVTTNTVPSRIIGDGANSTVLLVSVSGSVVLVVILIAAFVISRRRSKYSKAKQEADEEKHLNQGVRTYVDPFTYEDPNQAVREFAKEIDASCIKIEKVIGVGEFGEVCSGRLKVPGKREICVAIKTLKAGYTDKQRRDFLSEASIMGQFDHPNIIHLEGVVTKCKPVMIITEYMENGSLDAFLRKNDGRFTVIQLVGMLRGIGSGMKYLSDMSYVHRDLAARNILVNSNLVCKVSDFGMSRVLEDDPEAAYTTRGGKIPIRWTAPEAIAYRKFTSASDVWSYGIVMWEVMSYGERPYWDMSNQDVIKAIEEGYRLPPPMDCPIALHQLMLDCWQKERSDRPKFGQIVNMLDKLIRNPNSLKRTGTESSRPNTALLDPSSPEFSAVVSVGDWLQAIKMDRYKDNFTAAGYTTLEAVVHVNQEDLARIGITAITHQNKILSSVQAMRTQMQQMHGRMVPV

EPHB2 = molecular target: T3, EPHB2 (Homo sapiens, UniProt P29323); assay: Kinobeads two-dose competition binding: EPHB2; conditions: read-out: Lestaurtinib Drugmatrix value, Gene Name EPHB2
T3 construct: endogenous in cells
T3 sequence (P29323 19-1055): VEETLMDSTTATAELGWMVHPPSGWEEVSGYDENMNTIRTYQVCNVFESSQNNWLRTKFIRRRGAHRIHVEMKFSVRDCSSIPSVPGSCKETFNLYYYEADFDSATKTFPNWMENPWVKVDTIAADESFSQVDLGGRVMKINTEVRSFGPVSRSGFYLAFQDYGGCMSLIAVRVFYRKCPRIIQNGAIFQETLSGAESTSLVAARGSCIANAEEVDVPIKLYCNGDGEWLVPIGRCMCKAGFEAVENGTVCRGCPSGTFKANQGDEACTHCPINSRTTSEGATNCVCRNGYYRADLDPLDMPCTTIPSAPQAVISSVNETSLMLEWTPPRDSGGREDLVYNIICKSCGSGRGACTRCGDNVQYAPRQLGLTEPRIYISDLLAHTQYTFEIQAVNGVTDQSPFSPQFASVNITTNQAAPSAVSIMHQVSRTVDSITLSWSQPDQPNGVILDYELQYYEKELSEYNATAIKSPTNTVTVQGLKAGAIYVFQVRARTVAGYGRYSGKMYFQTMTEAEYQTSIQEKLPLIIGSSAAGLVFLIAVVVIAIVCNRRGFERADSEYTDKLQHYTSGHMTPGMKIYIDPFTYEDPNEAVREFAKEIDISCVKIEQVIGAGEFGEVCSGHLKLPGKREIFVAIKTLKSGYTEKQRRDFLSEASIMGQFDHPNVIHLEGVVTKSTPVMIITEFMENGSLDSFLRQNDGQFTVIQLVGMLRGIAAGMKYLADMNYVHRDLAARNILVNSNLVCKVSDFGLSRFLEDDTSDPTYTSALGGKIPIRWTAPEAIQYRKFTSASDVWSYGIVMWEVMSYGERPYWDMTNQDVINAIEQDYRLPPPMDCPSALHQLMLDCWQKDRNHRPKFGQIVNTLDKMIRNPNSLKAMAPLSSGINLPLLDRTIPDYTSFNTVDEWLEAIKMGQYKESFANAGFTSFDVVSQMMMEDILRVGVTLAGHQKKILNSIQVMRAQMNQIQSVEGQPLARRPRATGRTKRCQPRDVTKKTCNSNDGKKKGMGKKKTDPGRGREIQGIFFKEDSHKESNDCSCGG

HCK = molecular target: T4, HCK (Homo sapiens, UniProt P08631); assay: Kinobeads two-dose competition binding: HCK; conditions: read-out: Lestaurtinib Drugmatrix value, Gene Name HCK; target HCK; each column = one Lestaurtinib control replicate (batch_R1-R3)
T4 construct: endogenous in cells
T4 sequence (P08631 whole entry): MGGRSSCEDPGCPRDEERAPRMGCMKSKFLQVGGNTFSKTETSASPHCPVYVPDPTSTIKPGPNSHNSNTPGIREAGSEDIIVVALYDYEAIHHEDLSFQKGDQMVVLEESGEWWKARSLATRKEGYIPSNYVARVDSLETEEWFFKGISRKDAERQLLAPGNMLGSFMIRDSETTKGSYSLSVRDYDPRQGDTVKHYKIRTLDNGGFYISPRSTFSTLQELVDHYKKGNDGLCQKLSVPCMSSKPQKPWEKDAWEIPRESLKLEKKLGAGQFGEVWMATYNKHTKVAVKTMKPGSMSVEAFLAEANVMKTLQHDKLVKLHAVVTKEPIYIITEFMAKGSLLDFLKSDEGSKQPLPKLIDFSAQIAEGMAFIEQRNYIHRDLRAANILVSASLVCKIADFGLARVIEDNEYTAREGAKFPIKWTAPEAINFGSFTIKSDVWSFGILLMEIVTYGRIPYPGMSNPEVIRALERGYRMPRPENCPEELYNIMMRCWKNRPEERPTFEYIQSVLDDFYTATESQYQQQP

PRKAR2A = molecular target: T5, PRKAR2A (Homo sapiens, UniProt P13861); assay: Kinobeads competition binding, Lestaurtinib control replicates: PRKAR2A; conditions: read-out: Lestaurtinib Drugmatrix value; Gene Name PRKAR2A; one column per experiment number and replicate (R1-R3)
T5 construct: to maximize the representation of endogenous proteins; endogenous in cells

CSNK1E = molecular target: T6, CSNK1E (Homo sapiens, UniProt P49674); assay: Kinobeads full dose-response competition binding: CSNK1E; conditions: Gene Name CSNK1E
T6 construct: endogenous in cells
T6 sequence (P49674 whole entry): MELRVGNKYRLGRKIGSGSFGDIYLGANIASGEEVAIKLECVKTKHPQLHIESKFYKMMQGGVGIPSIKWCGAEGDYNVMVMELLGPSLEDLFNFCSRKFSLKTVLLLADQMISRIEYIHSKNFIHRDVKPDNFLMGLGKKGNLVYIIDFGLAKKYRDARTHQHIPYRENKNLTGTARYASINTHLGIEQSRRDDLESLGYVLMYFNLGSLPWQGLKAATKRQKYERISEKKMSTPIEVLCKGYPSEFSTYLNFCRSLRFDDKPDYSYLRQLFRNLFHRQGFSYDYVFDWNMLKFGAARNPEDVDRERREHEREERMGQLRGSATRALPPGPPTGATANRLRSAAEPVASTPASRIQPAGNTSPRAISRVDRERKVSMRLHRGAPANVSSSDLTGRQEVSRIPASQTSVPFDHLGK

[1] = test system: IL-10 secretion in primary bone marrow-derived dendritic cells (BMDCs); assay: IL-10 cytokine secretion assay (ELISA) in Zymosan-stimulated primary BMDCs; format: cell-based, mouse; conditions: murine BMDCs, inhibitor 30 min before Zymosan stimulation
Procedure: A subsequent full dose–response experiment confirmed potent and selective binding to SYK ( Kdapp = 58 nM, […] = 0.60; Extended Data Fig. 5a,b). […] One of the effects of Zymosan is that it activates Dectin-1 signaling, in turn activating SYK and leading to increased IL-10 cytokine production (Fig. 3c)[34]. Treatment of cells with the respective SYK inhibitors before Zymosan stimulation indeed led to decreased levels of IL-10 in a dose-dependent fashion (Fig. 3d). […] In line with the cytokine readout, we observed a dose depended reduction of pTyr525/526 indicating SYK inhibition in live cells (Fig. 3e and Extended Data Fig. 5c).
Primary BMDCs were obtained from 9-week-old C57BL/6 mice that were maintained under standard specific pathogen-free conditions. BMDCs were differentiated for 7 days in Roswell Park Memorial Institute medium (Gibco) and granulocyte-macrophage colony-stimulating factor. On day seven, BMDCs were seeded in 96-well plates at 10^5 cells per well in 100 µl of culture medium followed by incubation for 4 h at 37 °C. Subsequently, cells were incubated with SYK inhibitors for 30 min followed by stimulation with Zymosan (final concentration of 50 µg ml^−1; Invivogen) and dispersed in culture medium for 24 h. […] For cytokine secretion quantification, cell culture medium was collected and concentrations of IL-10 in the supernatant were determined using mouse enzyme-linked immunosorbent assay kits (IL-10: Invitrogen) according to the manufacturer’s protocol. Experiments were performed in biological triplicates.

| Compound | Relative Intensity 0.3nM (GSK3B) | Relative Intensity 1nM (GSK3B) | Relative Intensity 3nM (GSK3B) | Relative Intensity 10nM (GSK3B) | Relative Intensity 30nM (GSK3B) | Relative Intensity 100nM (GSK3B) | Relative Intensity 300nM (GSK3B) | Relative Intensity 1000nM (GSK3B) | Kd (GSK3B) | EC50 (GSK3B) | also measured |
| --- | --- | --- | --- | --- | --- | --- | --- | --- | --- | --- | --- |
| CCn1c(-c2nonc2N)nc2c(C#CC(C)(C)O)nc(OCCN)cc21 [GSK902056A] | 1.05 | 1.092 | 1.084 | 0.9805 | 0.9007 | 0.8389 | 0.5163 | 0.2905 | 288 nM | 296 nM |  |
| CCn1c(-c2nonc2N)nc2c(C#CC(C)(C)O)nc(OCCNC)cc21 [GSK949675A] | 0.987 | 0.9621 | 1.1 | 0.9042 | 0.9241 | 0.7846 | 0.5456 | 0.3036 | 171 nM | 322 nM |  |
| C[C@]12O[C@H](C[C@]1(O)CO)n1c3ccccc3c3c4c(c5c6ccccc6n2c5c31)CNC4=O [Lestaurtinib] |  |  |  |  |  |  |  |  |  |  | potency estimated from few doses (EPHA4): 268 nM; potency estimated from few doses (EPHB2): 257 nM; potency estimated from few doses (HCK): 587 nM; potency estimated from few doses (PRKAR2A): 979 nM |
| NCc1ccc(-c2nc(-c3ccncc3)c(-c3ccc(Cl)c(O)c3)[nH]2)cc1 [SB-476429-A] |  |  |  |  |  |  |  |  |  |  | Relative Intensity 0.3nM (CSNK1E; 0.3nM compound, DMSO = 1): 1.09; Relative Intensity 1nM (CSNK1E; 1nM compound, DMSO = 1): 1.082; Relative Intensity 3nM (CSNK1E; 3nM compound, DMSO = 1): 1.034; Relative Intensity 10nM (CSNK1E; 10nM compound, DMSO = 1): 1.047; Relative Intensity 30nM (CSNK1E; 30nM compound, DMSO = 1): 0.8419; Relative Intensity 100nM (CSNK1E; 100nM compound, DMSO = 1): 0.9482; Relative Intensity 300nM (CSNK1E; 300nM compound, DMSO = 1): 0.7771; Relative Intensity 1000nM (CSNK1E; 1000nM compound, DMSO = 1): 0.494; Kd (CSNK1E; EC50 with Correction, doses in nM, read-out: apparent Kd): 642 nM; EC50 (CSNK1E; eight-dose curve fit, doses in nM): 642 nM |
| Cn1cc(-c2nc(N[C@@H]3CCCC[C@@H]3N)c(F)c3c2C(=O)NC3)cn1 [TAK659] |  |  |  |  |  |  |  |  |  |  | IL-10 levels [1]: dose-dependent reduction |
